# Results taken from patent publication US20120115896A1, “ISOGENIC HUMAN CELL LINES COMPRISING MUTATED CANCER ALLELES AND PROCESS USING THE CELL LINES” (priority 2008, published 2012).
# Where two headings read alike, the source gives them in different places.
# What was measured:
# [1] = test system: hTERT-HME1 DKI cells carrying PIK3CA (H1047R) and EGFR (delE746-A750)
# [2] = test system: hTERT-HME1 cells carrying BRAF (V600E) KI
# [3] = test system: hTERT-HME1 cells carrying EGFR (delE746-A750) KI
# [4] = test system: hTERT-HME1 cells carrying KRAS (G13D) KI
# [5] = test system: hTERT-HME1 cells carrying PIK3CA (E545K and H1047R) KI
# [6] = test system: HCT 116 colorectal cancer cells and derivative clones (HKh-2, HKe-3, HK2-6, PIK3CA WT/mutant); assay: Viability (ATP assay) of HCT 116 cells and isogenic KRAS / PIK3CA derivative clones; details: HCT 116, FIG. 8A
# Experimental: (§1) Results are expressed as percent of viability compared to cells treated with DMSO only ('control') and represent mean±SD of at least three independent observations.
# (§2) After serial dilutions, 100 μl of drugs in serum free medium were added to cells with a multichannel pipette. Vehicle and medium-only containing wells were added as controls. Plates were incubated at 37° C. in 5% CO2 for 96 h, after which cell viability was assessed by ATP content using the CellTiter-Glo® Luminescent Assay (Promega Madison, Wis.).
# [7] = test system: DLD-1 colorectal cancer cells and derivative clones (DKO-1, DKO-3, DKO-4, PIK3CA WT/mutant); assay: Viability (ATP assay) of DLD-1 cells and isogenic KRAS / PIK3CA derivative clones; details: DLD-1, FIG. 8B
# Experimental: as §1, §2
# [8] = test system: hTERT-HME1 cells carrying BRAF (V600E) KI; assay: Drug assay: cell viability by ATP content (96 h), KI versus parental cells; ΔKI pharmarray analysis
# [9] = test system: hTERT-HME1 cells carrying EGFR (delE746-A750) KI; assay: Drug assay: cell viability by ATP content (CellTiter-Glo, 96 h), KI versus parental cells; ΔKI pharmarray analysis
# [10] = test system: hTERT-HME1 cells carrying KRAS (G13D) KI; assay: Drug assay: cell viability by ATP content (96 h), KI versus parental cells; ΔKI pharmarray analysis
# [11] = test system: hTERT-HME1 DKI cells carrying PIK3CA (H1047R) and EGFR (delE746-A750); assay: Drug assay: cell viability by ATP content (96 h), DKI versus parental cells; ΔKI pharmarray analysis
# [12] = test system: hTERT-HME1 cells carrying PIK3CA (E545K and H1047R) KI; assay: Drug assay: cell viability by ATP content (96 h) and Hoechst/propidium iodide staining, KI versus parental cells; ΔKI pharmarray analysis
smiles,measurement,setting,value
Oc1cccc(-c2nc(N3CCOCC3)c3oc4ncccc4c3n2)c1 [PI-103],ΔKI PIK3CA + EGFR,[1]; Log(M) −6.00,0
same,ΔKI PIK3CA + EGFR,[1]; Log(M) −7.00,0
same,ΔKI PIK3CA + EGFR,[1]; Log(M) −8.00,0
same,ΔKI BRAF,[2]; Log(M) −6.00,0
same,ΔKI BRAF,[2]; Log(M) −7.00,0
same,ΔKI BRAF,[2]; Log(M) −8.00,0
same,ΔKI EGFR,[3]; Log(M) −6.00,3.9
same,ΔKI EGFR,[3]; Log(M) −7.00,0
same,ΔKI EGFR,[3]; Log(M) −8.00,0
same,ΔKI KRAS,[4]; Log(M) −6.00,0
same,ΔKI KRAS,[4]; Log(M) −7.00,0
same,ΔKI KRAS,[4]; Log(M) −8.00,0
same,ΔKI PIK3CA,[5]; Log(M) −6.00,0
same,ΔKI PIK3CA,[5]; Log(M) −7.00,0
same,ΔKI PIK3CA,[5]; Log(M) −8.00,0
O=c1cc(-c2ccc(O)cc2)oc2cc(O)cc(O)c12 [Apigenin],ΔKI PIK3CA + EGFR,[1]; Log(M) −4.40,0
same,ΔKI PIK3CA + EGFR,[1]; Log(M) −4.70,0
same,ΔKI PIK3CA + EGFR,[1]; Log(M) −5.00,0
same,ΔKI BRAF,[2]; Log(M) −4.40,−3.18
same,ΔKI BRAF,[2]; Log(M) −4.70,−2.32
same,ΔKI BRAF,[2]; Log(M) −5.00,0
same,ΔKI EGFR,[3]; Log(M) −4.40,0
same,ΔKI EGFR,[3]; Log(M) −4.70,0
same,ΔKI EGFR,[3]; Log(M) −5.00,0
same,ΔKI KRAS,[4]; Log(M) −4.40,0
same,ΔKI KRAS,[4]; Log(M) −4.70,0
same,ΔKI KRAS,[4]; Log(M) −5.00,0
same,ΔKI PIK3CA,[5]; Log(M) −4.40,0
same,ΔKI PIK3CA,[5]; Log(M) −4.70,0
same,ΔKI PIK3CA,[5]; Log(M) −5.00,0
C[C@]12CC[C@@H]3c4ccc(O)cc4C[C@@H](CCCCCCCCC[S+]([O-])CCCC(F)(F)C(F)(F)F)[C@H]3[C@@H]1CC[C@@H]2O (stereo partly drawn) [Fulvestrant],ΔKI PIK3CA + EGFR,[1]; Log(M) −4.05,0
same,ΔKI PIK3CA + EGFR,[1]; Log(M) −4.52,0
same,ΔKI PIK3CA + EGFR,[1]; Log(M) −5.00,0
"O=C(NOCC1CC1)c1ccc(F)c(F)c1Nc1ccc(I)cc1Cl [CI-1040, CI-1040 (PD 184352)]",effect on PIK3CA WT/− cells versus isogenic PIK3CA mutant cells,[6],affects to a greater extent
same,effect on PIK3CA mutant cells in combination with everolimus,[6]; with everolimus 10^−7 M,effects comparable to those achievable by the MEK inhibitor alone
same,effect on PIK3CA WT/− cells versus isogenic PIK3CA mutant cells,[7],affects to a greater extent
same,effect on PIK3CA mutant cells in combination with everolimus,[7]; with everolimus 10^−7 M,effects comparable to those achievable by the MEK inhibitor alone
CC(C)=CCc1c(O)cc(O)c2c1O[C@H](c1ccc(O)cc1)CC2=O [8-Prenylnaringenin],ΔKI PIK3CA + EGFR,[1]; Log(M) −3.20,0.02
same,ΔKI PIK3CA + EGFR,[1]; Log(M) −3.68,1.52
same,ΔKI BRAF,[2]; Log(M) −3.20,0.02
same,ΔKI BRAF,[2]; Log(M) −3.68,0.88
same,ΔKI EGFR,[3]; Log(M) −3.20,0
same,ΔKI EGFR,[3]; Log(M) −3.68,1.16
same,ΔKI KRAS,[4]; Log(M) −3.20,0.02
same,ΔKI KRAS,[4]; Log(M) −3.68,0
same,ΔKI PIK3CA,[5]; Log(M) −3.20,0.02
same,ΔKI PIK3CA,[5]; Log(M) −3.68,0
"CO[C@H]1C[C@@H]2CC[C@@H](C)[C@@](O)(O2)C(=O)C(=O)N2CCCC[C@H]2C(=O)O[C@H]([C@H](C)C[C@@H]2CC[C@@H](O)[C@H](OC)C2)CC(=O)[C@H](C)/C=C(\C)[C@@H](O)[C@@H](OC)C(=O)[C@H](C)C[C@H](C)/C=C/C=C/C=C/1C [rapamycin, Rapamycin]",ΔKI PIK3CA + EGFR,[1]; Log(M) −5.40,1.22
same,ΔKI PIK3CA + EGFR,[1]; Log(M) −6.40,0
same,ΔKI PIK3CA + EGFR,[1]; Log(M) −7.40,1.6
same,ΔKI PIK3CA + EGFR,[1]; Log(M) −8.40,0
same,ΔKI PIK3CA + EGFR,[1]; Log(M) −9.40,0.66
same,ΔKI PIK3CA + EGFR,[1]; Log(M) −10.40,0
"O=c1cc(N2CCOCC2)oc2c(-c3ccccc3)cccc12 [LY294002, LY 294002]",ΔKI PIK3CA,[5]; Log(M) −5.10,3.62
O=C1C[C@@H](c2ccc(O)cc2)Oc2cc(O)cc(O)c21 [Naringenin],ΔKI PIK3CA + EGFR,[1]; Log(M) −3.05,0
same,ΔKI PIK3CA + EGFR,[1]; Log(M) −3.52,0
same,ΔKI PIK3CA + EGFR,[1]; Log(M) −4.00,0
same,ΔKI BRAF,[2]; Log(M) −3.05,−0.08
same,ΔKI BRAF,[2]; Log(M) −3.52,0
same,ΔKI BRAF,[2]; Log(M) −4.00,−1.5
same,ΔKI EGFR,[3]; Log(M) −3.05,0
same,ΔKI EGFR,[3]; Log(M) −3.52,0
same,ΔKI EGFR,[3]; Log(M) −4.00,0
same,ΔKI KRAS,[4]; Log(M) −3.05,0
same,ΔKI KRAS,[4]; Log(M) −3.52,0
same,ΔKI KRAS,[4]; Log(M) −4.00,0
same,ΔKI PIK3CA,[5]; Log(M) −3.05,0
same,ΔKI PIK3CA,[5]; Log(M) −3.52,0
same,ΔKI PIK3CA,[5]; Log(M) −4.00,0
CCN(CC)CCNC(=O)c1cc(Cl)c(N)cc1OC [Metoclopramide],ΔKI PIK3CA + EGFR,[1]; Log(M) −3.10,2.8
same,ΔKI PIK3CA + EGFR,[1]; Log(M) −3.35,0
same,ΔKI PIK3CA + EGFR,[1]; Log(M) −3.57,0
same,ΔKI PIK3CA + EGFR,[1]; Log(M) −3.70,0.2
same,ΔKI PIK3CA + EGFR,[1]; Log(M) −3.82,0
same,ΔKI PIK3CA + EGFR,[1]; Log(M) −4.05,0
same,ΔKI PIK3CA + EGFR,[1]; Log(M) −4.30,0
same,ΔKI PIK3CA + EGFR,[1]; Log(M) −4.52,0
same,ΔKI BRAF,[2]; Log(M) −3.10,−4.48
same,ΔKI BRAF,[2]; Log(M) −3.35,0
same,ΔKI BRAF,[2]; Log(M) −3.57,0
same,ΔKI BRAF,[2]; Log(M) −3.70,−0.66
same,ΔKI BRAF,[2]; Log(M) −3.82,0
same,ΔKI BRAF,[2]; Log(M) −4.05,0
same,ΔKI BRAF,[2]; Log(M) −4.30,0
same,ΔKI BRAF,[2]; Log(M) −4.52,0
same,ΔKI EGFR,[3]; Log(M) −3.10,0
same,ΔKI EGFR,[3]; Log(M) −3.35,9.94
same,ΔKI EGFR,[3]; Log(M) −3.57,0
same,ΔKI EGFR,[3]; Log(M) −3.70,0
same,ΔKI EGFR,[3]; Log(M) −3.82,0
same,ΔKI EGFR,[3]; Log(M) −4.05,0
same,ΔKI EGFR,[3]; Log(M) −4.30,0
same,ΔKI EGFR,[3]; Log(M) −4.52,0
same,ΔKI KRAS,[4]; Log(M) −3.10,0
same,ΔKI KRAS,[4]; Log(M) −3.35,0
same,ΔKI KRAS,[4]; Log(M) −3.57,0
same,ΔKI KRAS,[4]; Log(M) −3.70,0
same,ΔKI KRAS,[4]; Log(M) −3.82,0
same,ΔKI KRAS,[4]; Log(M) −4.05,0
same,ΔKI KRAS,[4]; Log(M) −4.30,0
same,ΔKI KRAS,[4]; Log(M) −4.52,0
same,ΔKI PIK3CA,[5]; Log(M) −3.10,0
same,ΔKI PIK3CA,[5]; Log(M) −3.35,0
same,ΔKI PIK3CA,[5]; Log(M) −3.57,0
same,ΔKI PIK3CA,[5]; Log(M) −3.70,0
same,ΔKI PIK3CA,[5]; Log(M) −3.82,0
same,ΔKI PIK3CA,[5]; Log(M) −4.05,0
same,ΔKI PIK3CA,[5]; Log(M) −4.30,0
same,ΔKI PIK3CA,[5]; Log(M) −4.52,0
COc1cc(O)c2c(c1)O[C@H](c1ccc(O)cc1)CC2=O [Sakuranetin],ΔKI PIK3CA + EGFR,[1]; Log(M) −3.05,0.04
same,ΔKI PIK3CA + EGFR,[1]; Log(M) −3.52,1.46
same,ΔKI BRAF,[2]; Log(M) −3.05,0.02
same,ΔKI BRAF,[2]; Log(M) −3.52,2.24
same,ΔKI EGFR,[3]; Log(M) −3.05,0.02
same,ΔKI EGFR,[3]; Log(M) −3.52,0.78
same,ΔKI KRAS,[4]; Log(M) −3.05,0
same,ΔKI KRAS,[4]; Log(M) −3.52,0
same,ΔKI PIK3CA,[5]; Log(M) −3.05,0
same,ΔKI PIK3CA,[5]; Log(M) −3.52,2.4
CN(C)CCCn1cc(C2=C(c3c[nH]c4ccccc34)C(=O)NC2=O)c2ccccc21 [Bisindolylmaleimide I],ΔKI BRAF,[8],0
same,ΔKI BRAF,[8]; Log(M) −5.70,0
same,ΔKI EGFR,[9],0
same,ΔKI EGFR,[9]; Log(M) −5.70,0
same,ΔKI KRAS,[10],0
same,ΔKI KRAS,[10]; Log(M) −5.70,0
same,ΔKI PIK3CA + EGFR,[11],0
same,ΔKI PIK3CA + EGFR,[11]; Log(M) −5.70,0
same,ΔKI PIK3CA,[12],0
same,ΔKI PIK3CA,[12]; Log(M) −5.70,0
